From patent publication US6897317B2, “4-Phenyltetrahydrochinoline utilized as an inhibitor of the cholesterol ester transfer protein” (Bayer Aktiengesellschaft, priority 1997, dated 2005)

Tests used:
[1] = molecular target: T1, cholesterol ester transfer protein (CETP) (Homo sapiens, UniProt P11597); assay: CETP inhibition test (3H-cholesterol ester transfer from HDL to biotinylated LDL, SPA); type: biochemical; settings: CETP partially purified from human plasma; 37° C., 18 h; concentration at which transfer is reduced by half
T1 construct: CETP is obtained in partially purified form from human plasma by differential centrifugation and column chromatography; from tissue; host or cells: human plasma
T1 sequence (P11597 18-493): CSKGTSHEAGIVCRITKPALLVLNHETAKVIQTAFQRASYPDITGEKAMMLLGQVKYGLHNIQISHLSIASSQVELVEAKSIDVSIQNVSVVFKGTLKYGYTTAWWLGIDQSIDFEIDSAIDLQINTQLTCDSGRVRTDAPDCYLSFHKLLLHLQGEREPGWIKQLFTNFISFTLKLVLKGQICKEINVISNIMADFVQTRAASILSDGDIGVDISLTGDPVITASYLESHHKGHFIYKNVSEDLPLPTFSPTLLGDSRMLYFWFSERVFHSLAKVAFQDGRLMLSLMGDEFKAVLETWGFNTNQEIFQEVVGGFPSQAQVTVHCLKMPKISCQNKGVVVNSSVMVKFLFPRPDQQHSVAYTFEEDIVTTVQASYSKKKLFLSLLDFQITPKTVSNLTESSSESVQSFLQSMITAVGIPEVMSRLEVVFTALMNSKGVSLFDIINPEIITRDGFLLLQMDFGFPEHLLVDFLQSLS
Experimental: Preparation of CETP • CETP is obtained in partially purified form from human plasma by differential centrifugation and column chromatography and used for the test. For this purpose, human plasma is adjusted to a density of 1.21 g per ml using NaBr and centrifuged at 50,000 rpm at 4° C. for 18 h. The bottom fraction (d>1.21 g/ml) is applied to a Sephadex®Phenyl-Sepharose 4B (Pharmacia) column, washed with 0.15 m NaCl/0.001 M TrisHCl pH 7.4 and subsequently eluted using dist. water. The CETP-active fractions are pooled, dialysed against 50 mM Na-acetate pH 4.5 and applied to a CM-Sepharose® (Pharmacia) column. Elution is subsequently carried out using a linear gradient (0-1 M NaCl). The pooled CETP fractions are dialysed against 10 mM Tris HCl pH 7.4 and subsequently purified further by chromatography over a Mono Q® column (Pharmacia).
Preparation of Radioactively Labelled HDL • 50 ml of fresh human EDTA plasma are adjusted to a density of 1.12 using NaBr and centrifuged at 4° C. in a Ty 65 rotor at 50,000 rpm for 18 h. […] CETP test • To assess the CETP activity, the transfer of ^3H-cholesterol ester from human HD-lipoproteins to biotinylated LD-lipoproteins is measured. • The reaction is terminated by addition of Streptavidin-SPA® beads (Amersham) and the transferred radioactivity is directly measured in a liquid scintillation counter. • In the assay mixture, […] (˜50,000 cpm) with 10 ml of Biotin-LDL (Amersham) in 50 mM Hepes/0.15 m NaCl/0.1% bovine serum albumin/0.05% NaN3 pH 7.4 are incubated with 10 ml of CETP (1 mg/ml) and 3 ml of a solution of the substance to be tested (dissolved in 10% DMSO/1% BSA) at 37° C. for 18 h. […] of the SPA streptavidin bead solution (TRKQ 7005) are subsequently added, the mixture is incubated with shaking for another 1 h and subsequently measured in a scintillation counter. • The controls used are corresponding incubations with 10 ml of buffer, 10 ml of CETP at 4° C. and 10 ml of CETP at 37° C. • The activity which is transferred in the control experiments with CETP at 37° C. is taken to be 100% transfer. […]

Row | melting point [°C] | IC50 [1] [nM] | Structure (SMILES)
1 | 166 to 168 | – | CC1(C)Cc2nc(C3CCCC3)c(C(=O)c3ccc(C(F)(F)F)cc3)c(-c3ccc(F)c(F)c3)c2[C@@H](O)C1 [Example 46]
2 | 167 to 168 | – | CC1(C)Cc2nc(C3CCCC3)c(C(=O)c3ccc(C(F)(F)F)cc3)c(-c3cccc(F)c3)c2[C@@H](O)C1 [Example 49]
3 | 129 | 23 | CC1(C)Cc2nc(C3CCCC3)c([C@@H](F)c3ccc(C(F)(F)F)cc3)c(-c3cccc(F)c3)c2[C@@H](O)C1 [Example 61]
4 | – | 6 | CC1(C)Cc2nc(C3CCCC3)c(C(F)c3ccc(C(F)(F)F)cc3)c(-c3ccc(F)cc3)c2C(C)(O)C1 (single isomer, unassigned) [Example 1, 2-Cyclopentyl-4-(4-fluorophenyl)-3-[fluoro-(4-trifluoromethyl-phenyl)-methyl]-5-methyl-7,7-dimethyl-5,6,7,8-tetrahydro-quinolin-5-ol]
5 | 206 to 207 | – | CCOc1ccc(-c2c([C@@H](F)c3ccc(C(F)(F)F)cc3)c(C3CCCC3)nc3c2[C@@H](O)CC(C)(C)C3)cc1.Cl
6 | 138 to 139 | – | CC1(C)Cc2nc(C3CCCC3)c([C@@H](F)c3ccc(C(F)(F)F)cc3)c(-c3ccc(Cl)cc3)c2[C@@H](O)C1 [Example 55]
7 | 136 to 137 | – | CC1(C)Cc2nc(C3CCCC3)c(Cc3ccc(C(F)(F)F)cc3)c(-c3ccc(Cl)cc3)c2[C@@H](O)C1 [Example 56]
8 | 153 to 155 | – | Cc1ccc(-c2c(C(=O)c3ccc(C(F)(F)F)cc3)c(C3CCCC3)nc3c2[C@@H](O)CC(C)(C)C3)cc1 [Example 51]
9 | 157 to 162 | – | CC1(C)Cc2nc(C3CCCC3)c(C(=O)c3ccc(C(F)(F)F)cc3)c(-c3ccc(C(F)(F)F)cc3)c2[C@@H](O)C1 [Example 48]
10 | 171 to 174 | – | COc1ccc(-c2c(C(=O)c3ccc(C(F)(F)F)cc3)c(C3CCCC3)nc3c2[C@@H](O)CC(C)(C)C3)cc1 [Example 47]
11 | 156 to 158 | 10 | Cc1ccc(-c2c([C@@H](F)c3ccc(C(F)(F)F)cc3)c(C3CCCC3)nc3c2[C@@H](O)CC(C)(C)C3)cc1 [Example 53]
12 | 175 to 176 | – | CC1(C)Cc2nc(C3CCCC3)c([C@@H](F)c3ccc(C(F)(F)F)cc3)c(-c3ccc(C(F)(F)F)cc3)c2[C@@H](O)C1 [Example 54]
13 | 168 to 169 | – | CC1(C)Cc2nc(C3CCCC3)c(C(=O)c3ccc(C(F)(F)F)cc3)c(-c3ccc(Cl)cc3)c2[C@@H](O)C1 [Example 52]
14 | 106 to 108 | – | Cc1ccc(-c2c(Cc3ccc(C(F)(F)F)cc3)c(C3CCCC3)nc3c2[C@@H](O)CC(C)(C)C3)cc1 [Example 62]
